Test results from patent publication US11498928B2, “Macrocyclic spiroethers as Mcl-1 inhibitors” (ASCENTAGE PHARMA (SUZHOU) CO., LTD., priority 2019, dated 2022).

Columns and labels:
[1] = target: T1, Mcl-1 protein (residues 171-323) (Homo sapiens, UniProt Q07820); assay: Inhibition of Mcl-1 by fluorescence polarization (FP) competitive binding assay with FAM-Bid tracer; details: 2 nM FAM-Bid, 20 nM Mcl-1, 30 min
T1 construct: Tag-free Mcl-1 protein (residues 171-323) was used in the FP assay
How it was run: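 Tag-free Mcl-1 (20 nM) with 2 nM FAM-Bid peptide in PBS, 0.01% BGG, 0.01% Triton X-100, 5% DMSO, 30 min at room temperature. FP read at Ex 485/Em 528 nm. IC50 from 10-point curves normalised to DMSO and no-protein controls.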

[2] = system: NCI-H929 cells; assay: Cell viability assay (NCI-H929 cells), CCK-8; type: cell-based; details: Homo sapiens, NCI-H929, 24 h, 5% FBS
How it was run: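 NCI-H929 cells from ATCC were seeded at 20000 cells/well in 95 μL of culture medium in 96-well plates and grown for 4 hrs. Compounds, serially diluted in DMSO and further diluted in medium, were added as 5 μL, and cells were incubated for 24 hrs at 37° C. with 5% CO2. Viability was measured with CCK-8.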

[3] = system: OPM-2 cells; assay: Cell viability assay (OPM-2 cells), CCK-8; type: cell-based; details: Homo sapiens, OPM-2, 24 h, 5% FBS
How it was run: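 OPM-2 myeloma cells (20000/well) exposed to serially diluted compound for 24 h at 37 °C, 5% CO2, then incubated 4 h with CCK-8 and read at 450 nm. Readings normalized to vehicle; IC50 from nonlinear regression.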

T1 sequence (Q07820 171-323): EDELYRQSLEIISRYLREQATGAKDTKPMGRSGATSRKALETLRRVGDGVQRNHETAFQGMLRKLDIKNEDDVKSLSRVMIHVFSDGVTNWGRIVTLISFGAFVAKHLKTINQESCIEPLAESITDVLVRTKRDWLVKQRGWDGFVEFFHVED

SMILES | IC50 [1] [µM] | IC50 [2] [µM] | IC50 [3] [µM]
CO[C@@]1(CN2CCC(N3CCOCC3)CC2)C2=C[C@@H](C2)[C@H](C)[C@@H](C)S(=O)(=O)NC(=O)c2ccc3c(c2)N(C[C@@H]2CC[C@H]21)C[C@@]1(CCCc2c1ccc(Cl)c2F)CO3 [compound 37, (1S,11′R,12′S,13′R,16′R,16a′R,18a′R,E)-6-chloro-5-fluoro-16′-methoxy-11′,12′-dimethyl-16′-((4-morpholinopiperidin-1-yl)methyl)-3,4,12′,13′,16′,16a′,17′,18′,18a′,19′-decahydro-1′H,2H,3′H, 11′H-spiro[naphthalene-1,2′-[5,7]etheno[13,15]methanocyclobuta[i][1,4]oxazepino[3,4-f][1]thia[2,7]diazacyclohexadecin]-8′(9′H)-one 10′,10′-dioxide] | 0.017 | 0.012 | 0.063
CO[C@@]1(CN2CCN(S(C)(=O)=O)CC2)C2=C[C@@H](C2)[C@H](C)[C@@H](C)S(=O)(=O)NC(=O)c2ccc3c(c2)N(C[C@@H]2CC[C@H]21)C[C@@]1(CCCc2c1ccc(Cl)c2F)CO3 [compound 38, (1S,11′R,12′S,13′R,16′R,16a′R,18a′R,E)-6-chloro-5-fluoro-16′-methoxy-1′,12′-dimethyl-16′-((4-(methylsulfonyl)piperazin-1-yl)methyl)-3,4,12′,13′,16′,16a′,17′,18′,18a′,19′-decahydro-1′H,2H,3′H,11′H-spiro[naphthalene-1,2′-[5,7]etheno[13,15]methanocyclobuta[i][1,4]oxazepino[3,4-f][1]thia[2,7]diazacyclohexadecin]-8′(9′H)-one 10′,10′-dioxide] | 0.015 | 0.05 | 0.03
CO[C@@]1(CN2C[C@@H](C)N(C)[C@@H](C)C2)C2=C[C@@H](C2)[C@H](C)[C@@H](C)S(=O)(=O)NC(=O)c2ccc3c(c2)N(C[C@@H]2CC[C@H]21)C[C@@]1(CCCc2c1ccc(Cl)c2F)CO3 [compound 40, (1S,11′R,12′S,13′R,16′R,16a′R,18a′R,E)-6-chloro-5-fluoro-16′-methoxy-11′,12′-dimethyl-16′-(((3S,5R)-3,4,5-trimethylpiperazin-1-yl)methyl)-3,4,12′,13′,16′,16a′,17′,18′,18a′,19′-decahydro-1′H,2H,3′H,11′H-spiro[naphthalene-1,2′-[5,7]etheno[13,15]methanocyclobuta[i][1,4]oxazepino[3,4-f][1]thia[2,7]diazacyclohexadecin]-8′(9′H)-one 10′,10′-dioxide] | 0.017 | 0.0026 | 0.055
CO[C@@]1(CN2CCNCC2)C2=C[C@@H](C2)[C@H](C)[C@@H](C)S(=O)(=O)NC(=O)c2ccc3c(c2)N(C[C@@H]2CC[C@H]21)C[C@@]1(CCCc2c1ccc(Cl)c2F)CO3 [compound 41, (1S,11′R,12′S,13′R,16′R,16a′R,18a′R,E)-6-chloro-5-fluoro-16′-methoxy-11′,12′-dimethyl-16′-(piperazin-1-ylmethyl)-3,4,12′,13′,16′,16a′,17′,18′,18a′,19′-decahydro-1′H,2H,3′H, 11′H-spiro[naphthalene-1,2′-[5,7]etheno[13,15]methanocyclobuta[i][1,4]oxazepino[3,4-f][1]thia[2,7]diazacyclohexadecin]-8′(9′H)-one 10′,10′-dioxide] | 0.026 | 0.19 | 0.156
CO[C@@]1(CN2C[C@@H](C)N[C@@H](C)C2)C2=C[C@@H](C2)[C@H](C)[C@@H](C)S(=O)(=O)NC(=O)c2ccc3c(c2)N(C[C@@H]2CC[C@H]21)C[C@@]1(CCCc2c1ccc(Cl)c2F)CO3 [compound 43, (1S,11′R,12′S,13′R,16′R,16a′R,18a′R,E)-6-chloro-16′-(((3S,5R)-3,5-dimethylpiperazin-1-yl)methyl)-5-fluoro-16′-methoxy-11′,12′-dimethyl-3,4,12′,13′,16′,16a′,17′,18′,18a′,19′-decahydro-1′H,2H,3′H,11′H-spiro[naphthalene-1,2′-[5,7]etheno[13,15]methanocyclobuta[i][1,4]oxazepino[3,4-f][1]thia[2,7]diazacyclohexadecin]-8′(9′H)-one 10′,10′-dioxide] | 0.015 | 0.035 | 0.047

The next compounds have a lower IC50 [1] than those just listed; values first:

IC50 [1] [µM] | IC50 [2] [µM] | SMILES | IC50 [3] [µM]
0.014 | 0.0024 | CO[C@@]1(CN2CCN(C)CC2)C2=C[C@@H](C2)[C@H](C)[C@@H](C)S(=O)(=O)NC(=O)c2ccc3c(c2)N(C[C@@H]2CC[C@H]21)C[C@@]1(CCCc2c1ccc(Cl)c2F)CO3 [compound 35, (1S,11′R,12′S,13′R,16′R,16a′R,18a′R,E)-6-chloro-5-fluoro-16′-methoxy-11′,12′-dimethyl-16′-((4-methylpiperazin-1-yl)methyl)-3,4,12′,13′,16′,16a′,17′,18′,18a′,19′-decahydro-1′H,2H,3′H, 11′H-spiro[naphthalene-1,2′-[5,7]etheno[13,15]methanocyclobuta[i][1,4]oxazepino[3,4-f][1]thia[2,7]diazacyclohexadecin]-8′(9′H)-one 10′,10′-dioxide] | 0.032
0.014 | 0.0077 | CO[C@@]1(CN2CCN(C)C(=O)C2)C2=C[C@@H](C2)[C@H](C)[C@@H](C)S(=O)(=O)NC(=O)c2ccc3c(c2)N(C[C@@H]2CC[C@H]21)C[C@@]1(CCCc2c1ccc(Cl)c2F)CO3 [compound 39, (1S,11′R,12′S,13′R,16′R,16a′R,18a′R,E)-6-chloro-5-fluoro-16′-methoxy-11′,12′-dimethyl-16′-((4-methyl-3-oxopiperazin-1-yl)methyl)-3,4,12′,13′,16′,16a′,17′,18′,18a′,19′-decahydro-1′H,2H,3′H, 11′H-spiro[naphthalene-1,2′-[5,7]etheno[13,15]methanocyclobuta[i][1,4]oxazepino[3,4-f][1]thia[2,7]diazacyclohexadecin]-8′(9′H)-one 10′,10′-dioxide] | 0.062
0.013 | 0.0044 | CO[C@@]1(CN2CCN(C3CCOCC3)CC2)C2=C[C@@H](C2)[C@H](C)[C@@H](C)S(=O)(=O)NC(=O)c2ccc3c(c2)N(C[C@@H]2CC[C@H]21)C[C@@]1(CCCc2c1ccc(Cl)c2F)CO3 [compound 36] | 0.035
0.013 | 0.051 | CO[C@@]1(CN2CCNC(=O)C2)C2=C[C@@H](C2)[C@H](C)[C@@H](C)S(=O)(=O)NC(=O)c2ccc3c(c2)N(C[C@@H]2CC[C@H]21)C[C@@]1(CCCc2c1ccc(Cl)c2F)CO3 [compound 42, (1S,11′R,12′S,13′R,16′R,16a′R,18a′R,E)-6-chloro-5-fluoro-16′-methoxy-11′,12′-dimethyl-16′-((3-oxopiperazin-1-yl)methyl)-3,4,12′,13′,16′,16a′,17′,18′,18a′,19′-decahydro-1′H,2H,3′H, 11′H-spiro[naphthalene-1,2′-[5,7]etheno[13,15]methanocyclobuta[i][1,4]oxazepino[3,4-f][1]thia[2,7]diazacyclohexadecin]-8′(9′H)-one 10′,10′-dioxide] | 0.066
